Source: patent publication US10947261B2, “Tetravalent platinum compound-bicyclic double-bond-containing amphiphilic polymer prodrug, nano-micelle, preparation method and application thereof” (ANHUI UNIVERSITY, priority 2017, dated 2021)

System: MCF-7, A549 and HepG2 cells
Test: Cellular uptake of drug-loaded micelles (confocal laser, flow cytometer)
Assay type: cell-based, human
Settings: doxorubicin 16 μg/mL, 4 h
Description: Cell culture: human breast cancer cells (MCF-7), human lung adenocarcinoma cells (A549) and human hepatoma cells (HepG2) were respectively added to a standard 6-well plate, and about 10^5 cells are in each well. After overnight culture, the culture medium was removed, and 1.8 mL of fresh medium was added to prepare three cell culture solutions.
Drug treatment: 0.2 mL of each of the above two drugs (the final concentration of doxorubicin was 16 μg/mL) were added to the three cell culture solutions, respectively, and the cells were cultured for 4 h; subsequently, the culture medium was removed, and the cells were washed twice with PBS, fixed with 4% paraformaldehyde solution (about 5 min), and then washed twice with PBS; then, the nuclei of cells were stained with nuclear staining reagent (5 min), and the cells were washed twice with PBS.

In the case of COc1cccc2c1C(=O)c1c(O)c3c(c(O)c1C2=O)C[C@@](O)(C(=O)CO)C[C@@H]3O[C@H]1C[C@H](N)[C@H](O)[C@H](C)O1 [doxorubicin], the cellular uptake is reported as “cellular uptake can effectively occur”.
